These results are taken from US9643970B2, “Substituted imidazo [1,5-a]pyrazines as PDE9 inhibitors” (H Lundbeck A/S, priority 2012, dated 2017).

pIC50: −log10 of the molar value. Where two headings read alike, the source gives them in different places.

The assay deals with PDE9 (Homo sapiens, UniProt O76083). The assay can be described thus: PDE9 inhibition assay. The class given is biochemical. As for the experimental part: Reactions are initiated by addition of the cyclic nucleotide substrate, and reactions are allowed to proceed for one hr at room temperature before being terminated through mixing with 15 uL 8 mg/mL yttrium silicate SPA beads (Amersham). […] IC50 values were calculated by non linear regression using XLfit (IDBS).
Sequence of PDE9 (O76083 whole entry): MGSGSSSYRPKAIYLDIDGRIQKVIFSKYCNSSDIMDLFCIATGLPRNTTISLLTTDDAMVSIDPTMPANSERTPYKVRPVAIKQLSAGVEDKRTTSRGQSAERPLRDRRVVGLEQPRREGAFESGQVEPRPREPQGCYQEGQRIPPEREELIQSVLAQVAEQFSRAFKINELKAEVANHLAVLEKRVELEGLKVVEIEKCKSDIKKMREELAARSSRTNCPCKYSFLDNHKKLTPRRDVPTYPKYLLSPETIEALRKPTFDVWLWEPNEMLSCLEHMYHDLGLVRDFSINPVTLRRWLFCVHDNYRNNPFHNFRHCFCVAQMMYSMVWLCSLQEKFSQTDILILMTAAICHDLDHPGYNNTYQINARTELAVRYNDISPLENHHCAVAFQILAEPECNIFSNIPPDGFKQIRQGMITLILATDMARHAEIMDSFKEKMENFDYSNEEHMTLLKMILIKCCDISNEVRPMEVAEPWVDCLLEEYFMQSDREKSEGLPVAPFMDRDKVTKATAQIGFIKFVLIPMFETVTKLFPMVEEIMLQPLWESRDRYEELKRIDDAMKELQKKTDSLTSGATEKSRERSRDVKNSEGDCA

Where [1] appears, read: SPA assay, 10 nM 3H-cAMP, 1 hour incubation, read-out: IC50.

As usually defined, the pIC50 is the negative decadic logarithm of the IC50, by convention in mol/L. On to `O=c1[nH]c(CN2CC(Oc3ccc(OC(F)(F)F)cc3)C2)cn2c(-c3ccc(F)cc3)ncc12` [Compound 74, 3-(4-fluorophenyl)-6-[[3-[4-(trifluoromethoxy)phenoxy]azetidin-1-yl]methyl]-7h-imidazo[1,5-a]pyrazin-8-one], for which the negative logarithm of the IC50 (pIC50) under setting [1] was 7.80.

With `O=c1[nH]c(CN2CC(Oc3ccc(F)cc3)C2)cn2c(C3CCOCC3)ncc12` [Compound 75, 6-[[3-(4-fluorophenoxy)azetidin-1-yl]methyl]-3-tetrahydropyran-4-yl-7h-imidazo[1,5-a]pyrazin-8-one], the pIC50 is 6.94.

On to `O=c1[nH]c(CN2CC(c3ccc(F)cc3)C2)cn2c(-c3ccc(F)cc3)ncc12` [Compound 76, 3-(4-fluorophenyl)-6-[[3-(4-fluorophenyl)azetidin-1-yl]methyl]-7h-imidazo[1,5-a]pyrazin-8-one], for which the negative-log IC50 (pIC50) under setting [1] was 7.48.

Regarding `O=c1[nH]c(CN2CC(c3ccc(C(F)(F)F)cn3)C2)cn2c(-c3ccc(F)cc3)ncc12` [Compound 77, 3-(4-fluorophenyl)-6-[[3-[5-(trifluoromethyl)-2-pyridyl]azetidin-1-yl]methyl]-7h-imidazo[1,5-a]pyrazin-8-one], the pIC50 under setting [1] was 8.40.

Take `CCc1ccc(C2CN(Cc3cn4c(C5CCOCC5)ncc4c(=O)[nH]3)C2)cc1` [Compound 78, 6-[[3-(4-ethylphenyl)azetidin-1-yl]methyl]-3-tetrahydropyran-4-yl-7h-imidazo[1,5-a]pyrazin-8-one]: the pIC50 under setting [1] is 8.22.

With `CC1CN(Cc2ccc(C(F)(F)F)nc2)CC1c1cn2c(C3CCOCC3)ncc2c(=O)[nH]1` (centres unmarked) [Compound 79, 6-[4-methyl-1-[[6-(trifluoromethyl)-3-pyridyl]methyl]pyrrolidin-3-yl]-3-tetrahydropyran-4-yl-7h-imidazo[1,5-a]pyrazin-8-one], the negative logarithm of the IC50 (pIC50) under setting [1] was 7.64.

Regarding `N#Cc1ccc(OC2CN(Cc3cn4c(C5CCOCC5)ncc4c(=O)[nH]3)C2)cc1` [Compound 80, 4-[1-[(8-oxo-3-tetrahydropyran-4-yl-7h-imidazo[1,5-a]pyrazin-6-yl)methyl]azetidin-3-yl]oxybenzonitrile], the pIC50 under setting [1] is 7.74.

Regarding `CC1CN(Cc2ccccn2)CC1c1cn2c(C3CCOCC3)ncc2c(=O)[nH]1` (centres unmarked) [Compound 81, 6-[4-methyl-1-(2-pyridylmethyl)pyrrolidin-3-yl]-3-tetrahydropyran-4-yl-7h-imidazo[1,5-a]pyrazin-8-one], the pIC50 under setting [1] is 7.72.

In the case of `O=c1[nH]c(CN2CC(Oc3ccncc3)C2)cn2c(C3CCOCC3)ncc12` [Compound 82, 6-[[3-(4-pyridyloxy)azetidin-1-yl]methyl]-3-tetrahydropyran-4-yl-7h-imidazo[1,5-a]pyrazin-8-one], the pIC50 under setting [1] was 7.85.

On to `O=c1[nH]c(CN2CCC(Oc3ncccn3)C2)cn2c(C3CCOCC3)ncc12` (centres unmarked) [Compound 84, 6-[(3-pyrimidin-2-yloxypyrrolidin-1-yl)methyl]-3-tetrahydropyran-4-yl-7h-imidazo[1,5-a]pyrazin-8-one], for which the negative logarithm of the IC50 (pIC50) under setting [1] was 6.96.

`O=c1[nH]c(CN2CCC(Oc3ccccc3)C2)cn2c(-c3ccc(F)cc3)ncc12` (centres unmarked) [Compound 85, 3-(4-fluorophenyl)-6-[(3-phenoxypyrrolidin-1-yl)methyl]-7h-imidazo[1,5-a]pyrazin-8-one]: under setting [1], the negative logarithm of the IC50 (pIC50) is 6.85.

In the case of `O=c1[nH]c(CN2CCC(Oc3ncccn3)C2)cn2c(-c3ccc(F)cc3)ncc12` (centres unmarked) [Compound 86, 3-(4-fluorophenyl)-6-[(3-pyrimidin-2-yloxypyrrolidin-1-yl)methyl]-7h-imidazo[1,5-a]pyrazin-8-one], under setting [1], the negative-log IC50 (pIC50) is 6.63.

With `O=c1[nH]c(CN2CC(Oc3ccncc3)C2)cn2c(-c3ccc(F)cc3)ncc12` [Compound 87, 3-(4-fluorophenyl)-6-[[3-(4-pyridyloxy)azetidin-1-yl]methyl]-7h-imidazo[1,5-a]pyrazin-8-one], the negative logarithm of the IC50 (pIC50) under setting [1] was 7.38.

In turn, `O=c1[nH]c(CN2CC(Oc3cccnc3)C2)cn2c(-c3ccc(F)cc3)ncc12` [Compound 88, 3-(4-fluorophenyl)-6-[[3-(3-pyridyloxy)azetidin-1-yl]methyl]-7h-imidazo[1,5-a]pyrazin-8-one] had a pIC50 of 8.52.
